Patent US11008340B2, “Modulators of ROR-gamma” (Vitae Pharmaceuticals, LLC, priority 2015, dated 2021)
Like-named read-outs stand apart in the source and are kept apart here.

Legend:
[1] = biological target: T1, recombinant RORγ Ligand Binding Domain (LBD) protein (Homo sapiens, UniProt P51449); assay: Radio-Ligand RORγ Binding Assay (Assay 1); details: radio-ligand competition, RORγ LBD, read-out: Avg ROR Bind Ki
T1 construct: 6×His; GST
T1 sequence (P51449 269-508 limits assumed): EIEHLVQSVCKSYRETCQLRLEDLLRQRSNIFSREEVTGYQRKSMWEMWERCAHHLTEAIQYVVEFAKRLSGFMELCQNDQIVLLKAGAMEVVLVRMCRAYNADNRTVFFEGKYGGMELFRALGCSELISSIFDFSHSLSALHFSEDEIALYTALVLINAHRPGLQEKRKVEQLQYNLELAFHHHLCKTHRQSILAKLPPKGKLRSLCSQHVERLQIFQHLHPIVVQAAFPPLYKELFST
Summary of the method: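 Cell-free SPA competition between compound and 25-hydroxy[26,27-^3H]-cholesterol for 6×His-GST-tagged RORγ LBD in 50 mM HEPES pH 7.4 with NaCl, MgCl2, glycerol, CHAPS, octylglucoside and DTT. Mix was shaken 20 min, held 10 min at rt, then read after poly-Lys YSi beads. IC50 came from a four-parameter fit, and Ki from radioligand KD.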

[2] = biological target: T2, full-length RORγt in Jurkat cells (Homo sapiens, UniProt P51449); assay: RORγt 5×RORE Assay in Jurkat Cells (Assay 2); type: cell-based; details: 5×RORE luciferase reporter
T2 construct: transcriptional activity of the full-length RORγt in Jurkat cells; host or cells: Jurkat cells (ATCC TIB-152)
T2 sequence (P51449 1-497 isoform P51449-2): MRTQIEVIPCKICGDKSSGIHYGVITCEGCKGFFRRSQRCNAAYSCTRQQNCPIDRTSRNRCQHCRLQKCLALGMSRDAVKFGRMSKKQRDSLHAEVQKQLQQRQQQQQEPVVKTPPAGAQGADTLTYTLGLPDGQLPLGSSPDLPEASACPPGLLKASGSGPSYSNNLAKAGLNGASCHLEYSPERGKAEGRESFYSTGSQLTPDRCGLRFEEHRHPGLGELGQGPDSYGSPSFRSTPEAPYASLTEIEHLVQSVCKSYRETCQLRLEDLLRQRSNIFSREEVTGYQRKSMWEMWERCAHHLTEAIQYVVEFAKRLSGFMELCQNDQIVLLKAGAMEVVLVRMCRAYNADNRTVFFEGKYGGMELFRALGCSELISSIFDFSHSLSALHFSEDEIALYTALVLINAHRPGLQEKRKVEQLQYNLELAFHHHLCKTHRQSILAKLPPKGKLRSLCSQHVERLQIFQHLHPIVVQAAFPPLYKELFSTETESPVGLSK
Method: [formula] RORγt 5×RORE Assay in Jurkat Cells (Assay 2)
Compounds described herein were tested for RORγ inverse agonist activity in a cell-based, transcriptional activity assay. Secreted Nanoluc″ luciferase was used as a reporter for transcriptional activity of the full-length RORγt in Jurkat cells (ATCC, Cat. #TIB-152). A reporter plasmid was constructed by inserting 5 repeats of the ROR Response Element (RORE) […] (SEQ ID NO: 1) into a commercially available promoterless plasmid pNL1.3[secNluc] (Promega, Cat. #N1021) using KpnI and HindIII restriction sites. The expression plasmid for RORγt was purchased (Geneocopoeia, Cat. #EX-T6988-M02). Jurkat cells (30 million cells) were transfected with 11 μg of EX-T6988-MO2 and 26 μg of the reporter plasmid in OptiMEM® media using Lipofectamine LTX and Plus™ reagents (Life Technologies, Cat. #15338-100). After 5-6 hrs of incubation at 37° C./5% CO2, the cells were collected, resuspended in phenol-red free RPMI media containing 10% (v/v) delipidated FBS (Hyclone, Cat. #SH30855.03) and dispensed into 96-well clear bottom tissue culture plates (CoStar, Cat. #3603), at 80,000 cells per well. Tested compounds were added to the cells in the same media (final concentration of DMSO was 0.1% (v/v)), and the plates were incubated at 37° C./5% CO2 for 16-18 hrs. Luciferase activity in the conditioned supernatants was determined with NanoGlo® assay reagents (Promega, Cat. #N1130).

[3] = 25-hydroxy [26,27-3H]-cholesterol
[4] = Table 20, read-out: Avg ROR γt/5x IC5

Row | Structure (SMILES) | Ki [1, 3] | IC50 [2, 4] | IC50 ([2]; read-out: Avg ROR γt/5x IC50) | Ki ([1]; head without unit (Tables 15, 17)) | IC50 ([2]; head without unit (Tables 15, 17), read-out: Avg ROR γt/5x IC50)
1 | CCS(=O)(=O)c1ccc(CNC(=O)c2ccc3c(c2)C(C)(C)CN(Cc2cnc(C)cn2)[C@H]3C(C)C)cc1 (single isomer, unassigned) [Hy2A-22.1] | < 100 nM |  | 100 to 1000 nM |  | 
2 | CCS(=O)(=O)c1ccc(CNC(=O)c2ccc3c(c2)CCN(c2nccc(C(F)(F)F)n2)C3C(C)C)cc1 (centres unmarked) [Hy2A-3, N-(4-(ethylsulfonyl)benzyl)-1-isopropyl-2-(4-(trifluoromethyl)pyrimidin-2-yl)-1,2,3,4-tetrahydroisoquinoline-6-carboxamide] | < 100 nM |  | > 1000 nM |  | 
3 | CCOC(=O)c1cnc(N2CCc3cc(C(=O)NCc4ccc(S(=O)(=O)CC)cc4)ccc3[C@@H]2C(C)C)nc1C(F)(F)F (single isomer, unassigned) [Hy2A-5.1] | < 100 nM |  | 100 to 1000 nM |  | 
4 | CCS(=O)(=O)c1ccc([C@H](CO)NC(=O)c2ccc3c(OC4CCN(CC(F)(F)F)CC4)nc(C)cc3c2)cc1 [Hy1A-17, (R)-N-(1-(4-(ethylsulfonyl)phenyl)-2-hydroxyethyl)-3-methyl-1-((1-(2,2,2-trifluoroethyl)piperidin-4-yl)oxy)isoquinoline-6-carboxamide] | < 100 nM |  | > 1000 nM |  | 
5 | CCS(=O)(=O)c1ccc([C@H](CO)NC(=O)c2ccc3c(OCC4CCN(CC(F)(F)F)CC4)nc(C)cc3c2)cc1 [Hy1A-19, (R)-N-(1-(4-(ethylsulfonyl)phenyl)-2-hydroxyethyl)-3-methyl-1-((1-(2,2,2-trifluoroethyl)piperidin-4-yl)methoxy)isoquinoline-6-carboxamide] | < 100 nM |  | 100 to 1000 nM |  | 
6 | CCS(=O)(=O)c1ccc(CNC(=O)c2ccc3c(c2)CCN(Cc2ncc(C)cn2)[C@H]3C(C)C)cc1 (single isomer, unassigned) [Hy2A-12.1] | 100 to 1000 nM |  | 100 to 1000 nM |  | 
7 | CCS(=O)(=O)c1ccc([C@H](CO)NC(=O)c2ccc3c(OC[C@H]4CC[C@H](C(F)(F)F)CC4)nc(C)cc3c2)cc1 [Hy1A-10, N-((R)-1-(4-(ethylsulfonyl)phenyl)-2-hydroxyethyl)-3-methyl-1-(((1r,4R)-4-(trifluoromethyl)cyclohexyl)methoxy)isoquinoline-6-carboxamide] | < 100 nM |  | < 100 nM |  | 
8 | CCS(=O)(=O)c1ccc([C@H](CO)NC(=O)c2ccc3c(COc4ccc(C(F)(F)F)cc4)nccc3c2)cc1 [Hy1A-24, (R)-N-(1-(4-(ethylsulfonyl)phenyl)-2-hydroxyethyl)-1-((4-(trifluoromethyl)phenoxy)methyl)isoquinoline-6-carboxamide] | < 100 nM |  | 100 to 1000 nM |  | 
9 | CCS(=O)(=O)c1ccc(CNC(=O)c2ccc3c(OCc4ccc(C(F)(F)F)cc4)nccc3c2)cc1 [Hy1A-4, N-(4-(ethylsulfonyl)benzyl)-1-((4-(trifluoromethyl)benzyl)oxy)isoquinoline-6-carboxamide] | < 100 nM |  | 100 to 1000 nM |  | 
10 | CCC1c2ccc(C(=O)NCc3ccc(S(=O)(=O)CC)cc3)cc2CCN1CC1CCC(C(F)(F)F)CC1 (single isomer, unassigned) [Hy2A-27] | < 100 nM |  | < 100 nM |  | 
11 | CCS(=O)(=O)c1ccc(CNC(=O)c2ccc3c(c2)CCN(Cc2ccc(Cl)cc2)[C@H]3C(C)C)cc1 (single isomer, unassigned) [Hy2A-20.1] | < 100 nM |  | < 100 nM |  | 

Results, then the compound that gave them:

Row | Ki [1, 3] | IC50 [2, 4] | IC50 ([2]; read-out: Avg ROR γt/5x IC50) | Ki ([1]; head without unit (Tables 15, 17)) | IC50 ([2]; head without unit (Tables 15, 17), read-out: Avg ROR γt/5x IC50) | Structure (SMILES)
12 | < 100 nM | < 100 nM |  |  |  | CC[C@@H]1CN(c2ccc(C(F)(F)F)cc2)Cc2cc(C(=O)NCc3ccc(S(=O)(=O)CC)cc3)ccc21 (single isomer, unassigned) [Hy7-7.1]
13 | < 100 nM |  | < 100 nM |  |  | CCS(=O)(=O)c1ccc([C@H](CO)NC(=O)c2ccc3c(C4CC4)n(C[C@H]4CC[C@H](C(F)(F)F)CC4)nc3c2)cc1 [Hy3A-1, 3-cyclopropyl-N-((R)-1-(4-(ethylsulfonyl)phenyl)-2-hydroxyethyl)-2-(((1r,4R)-4-(trifluoromethyl)cyclohexyl)methyl)-2H-indazole-6-carboxamide]
14 | < 100 nM |  | < 100 nM |  |  | CCS(=O)(=O)c1ccc(CNC(=O)c2ccc3c(C4CC4)n(C[C@H]4CC[C@H](C(F)(F)F)CC4)nc3c2)cc1 [Hy3A-2, 3-cyclopropyl-N-(4-(ethylsulfonyl)benzyl)-2-(((1r,4r)-4-(trifluoromethyl)cyclohexyl)methyl)-2H-indazole-6-carboxamide]
15 | < 100 nM | 100 to 1000 nM |  |  |  | CC[C@H]1CN(c2ncc(C(F)(F)F)cc2C)Cc2cc(C(=O)N[C@@H](CO)c3ccc(S(=O)(=O)CC)cc3)ccc21 (single isomer, unassigned) [Hy7-22.2]
16 | < 100 nM | < 100 nM |  |  |  | CCC1CN(C2CCC(C(F)(F)F)CC2)Cc2cc(C(=O)NC(CO)c3ccc(S(=O)(=O)CC)cc3)ccc21 (single isomer, unassigned) [Hy7-35.1]
17 | < 100 nM | 100 to 1000 nM |  |  |  | CC[C@H]1CN(c2ccc(C(F)(F)F)cc2)Cc2cc(C(=O)NCc3ccc(S(=O)(=O)CC)cc3)ccc21 (single isomer, unassigned) [Hy7-7.2]
18 | < 100 nM | 100 to 1000 nM |  |  |  | CC[C@H]1CN(c2ncc(C(F)(F)F)cc2C)Cc2cc(C(=O)NCc3ccc(S(=O)(=O)CC)cc3)ccc21 (single isomer, unassigned) [Hy7-13.2]
19 | < 100 nM | > 1000 nM |  |  |  | CCC1CN(c2ncc(C(F)(F)F)cn2)Cc2cc(C(=O)N[C@@H](CO)c3ccc(S(=O)(=O)CC)cc3)ccc21 (single isomer, unassigned) [Hy7-17.2]
20 | < 100 nM | > 1000 nM |  |  |  | CCS(=O)(=O)c1ccc(CNC(=O)c2ccc3c(c2)CN(c2ncc(F)cn2)C[C@@H]3C(C)C)cc1 (single isomer, unassigned) [Hy7-1.2]
21 | < 100 nM | 100 to 1000 nM |  |  |  | CCS(=O)(=O)c1ccc(CNC(=O)c2ccc3c(c2)CN(c2ncc(Cl)cn2)C[C@H]3C(C)C)cc1 (single isomer, unassigned) [Hy7-3.1]
22 | < 100 nM | > 1000 nM |  |  |  | CCS(=O)(=O)c1ccc(CNC(=O)c2ccc3c(c2)CN(c2ncc(C4CC4)cn2)C[C@@H]3C(C)C)cc1 (single isomer, unassigned) [Hy7-4.2]
23 | < 100 nM | < 100 nM |  |  |  | CCOC(=O)c1cnc(N2Cc3cc(C(=O)NCc4ccc(S(=O)(=O)CC)cc4)ccc3[C@H](C(C)C)C2)nc1 (single isomer, unassigned) [Hy7-16.1]
24 | < 100 nM | 100 to 1000 nM |  |  |  | CC[C@H]1CN(c2ccc(C(F)(F)F)cc2)C(=O)c2cc(C(=O)NCc3ccc(S(=O)(=O)CC)cc3)ccc21 (single isomer, unassigned) [Hy7-12.2]
25 | < 100 nM | 100 to 1000 nM |  |  |  | CC[C@@H]1CN(c2ncc(C3CC3)cn2)Cc2cc(C(=O)N[C@@H](CO)c3ccc(S(=O)(=O)CC)cc3)ccc21 (single isomer, unassigned) [Hy7-11.1]
26 | < 100 nM | < 100 nM |  |  |  | CCS(=O)(=O)c1ccc(CNC(=O)c2ccc3c(c2)CN(c2ncc(-c4ccnc(OC)c4)cn2)C[C@H]3C(C)C)cc1 (single isomer, unassigned) [Hy7-23.1]
27 |  |  |  | 100 to 1000 nM | 100 to 1000 nM | CCS(=O)(=O)c1ccc(CNC(=O)c2cnc3c(c2)CCN(C[C@H]2CC[C@H](C(F)(F)F)CC2)[C@H]3C(C)C)nc1 (single isomer, unassigned) [Hy2B-10.1]
28 | < 100 nM | < 100 nM |  |  |  | CC[C@@H]1CN(c2ncc(-c3ncco3)cn2)Cc2cc(C(=O)NCc3ccc(S(=O)(=O)CC)cc3)ccc21 (single isomer, unassigned) [Hy7-31.1]
